Experimental data: patent publication US12331135B2, “Anti-tyrosinase antibody for inhibiting tyrosinase and use thereof” (HAUUL BIO, priority 2019, dated 2025)

What was measured:
Format in all cases: cell-based, mouse
B16F10 cells [1] = assay: Melanin production inhibitory effect test; conditions: 100 ppm, absorbance 475 nm
Description: To determine an inhibitory effect of the TAT-α-tyrosinase scFv antibody on melanin production in cells, B16F10 cell lines were treated with the TAT-α-tyrosinase scFv antibody and then the produced intracellular melanin content was measured. B16F10 cells, which are malignant melanoma cells, were cultured at 37° C. in the CO2 incubator. Thereafter, the cells were treated with 10 ppm of the TAT-α-tyrosinase scFv antibody and 100 ppm of arbutin as a positive control, followed by further culture under the same culture conditions. After the culture, each well was washed with PBS and 130 ul of 1 N NaOH solution was added to dissolve it at 60° C. for 1 hour.

B16F10 cells [2] = assay: Cytotoxicity test (MTT); conditions: unit assumed
Description: In order to examine cytotoxicity of the TAT-α-tyrosinase scFv antibody, B16F10 cells, mouse-derived malignant melanoma cells, were cultured in a CO2 incubator at 37° C. After the culture, the cells were treated with the TAT-α-tyrosinase scFv antibody at different concentrations (0.1, 1, 5, 10, 50, 100 ppm), and then further cultured under the same culture conditions. After the culture, MTT{3-(4,5-Dimethylthiazol-2-yl)-2,5-Diphenyltetrazolium Bromide} solution was added and cultured. After that, the culture solution was removed, and DMSO (dimethyl sulfoxide) was added and shaken moderately.

B16F10 cells [3] = assay: Reactive oxygen species inhibitory effect test
Description: In order to determine the inhibitory effect of the TAT-α-tyrosinase scFv antibody on reactive oxygen species in cells, the B16F10 cell lines were treated with the TAT-α-tyrosinase scFv antibody, and then the content of intracellular reactive oxygen species was measured using fluorescence staining. B16F10 cells, which are malignant melanoma cells, were cultured in the CO2 incubator at 37° C. Thereafter, the cells were treated with 100 ppm of the TAT-α-tyrosinase scFv antibody and 100 ppm of arbutin as a positive control, and then further cultured under the same culture conditions. After the culture, 0.2 mM hydrogen peroxide was added to each well, and then cultured for 2 hours. Carboxy-H2DCF-DA was added and reaction was carried out at 37° C. for 30 minutes. After washing with PBS, fluorescence was measured with the ELISA Reader system at 475/535 nm by re-addition of PBS, and the values are shown in Table 4.

## OC[C@H]1O[C@@H](Oc2ccc(O)cc2)[C@H](O)[C@@H](O)[C@@H]1O [Arbutin]
B16F10 cells [1]
  Melanin biosynthesis amount (% of control), Average: 66.1 % of control
B16F10 cells [2]; 0.1 ppm
  Cell viability (MTT, absorbance at 570 nm), Average: 97.6%
B16F10 cells [2]; 1 ppm
  Cell viability (MTT, absorbance at 570 nm), Average: 97%
B16F10 cells [2]; 5 ppm
  Cell viability (MTT, absorbance at 570 nm), Average: 83.5%
B16F10 cells [2]; 10 ppm
  Cell viability (MTT, absorbance at 570 nm), Average: 89.3%
B16F10 cells [2]; 50 ppm
  Cell viability (MTT, absorbance at 570 nm), Average: 82.4%
B16F10 cells [2]; 100 ppm
  Cell viability (MTT, absorbance at 570 nm), Average: 57.7%
B16F10 cells [3]; 0.2 mM H2O2, 100 ppm
  ROS (fold of control), Average: 1.29 fold of control
B16F10 cells [3]; non treat control (no H2O2), 100 ppm
  ROS (fold of control), Average: 0.82 fold of control
